Results as given in article PMC8891108, “Development and characterization of anti-fibrotic natural compound similars with improved effectivity” (Basic Research in Cardiology, 2022).

Columns and labels:
Type in all cases: cell-based
[1] = test system: human cardiac fibroblasts (HCF); assay: BrdU incorporation, HCF proliferation (first screen); details: for EC50: Homo sapiens, Cardiac fibroblast, HCF, 24 h treatment, read-out: Effective conc. (BrdU), EC50 by BrdU assay
Procedure: 96-well plates (TPP) were coated with 0.1% gelatine and seeded with 7500 HCFs/well. After 72 h, medium was exchanged with serial dilutions of compounds in FGM-3 + 1.6% DMSO + 1% 5-bromo-2′-deoxyuridine (BrdU, Roche, #11647229001), prepared in additional plates. After 24 h, cells were washed twice with DPBS (Gibco, #14190144) before incubation with anti-BrdU:POD (Roche, #11647229001) for 60 min (RT). Readout was performed by measurement of absorbance at 370 nm + 490 nm in a Synergy HT (BioTek) microplate reader. […] As validation, HCF were seeded as before, but treated with serial dilutions of compounds after 24 h. […] After 60 min of incubation (37 °C, in the dark), absorbance at 450 nm + 630 nm was measured maintaining 37 °C and analysed as described before.
To assess screening quality, quality acceptance criteria Z′ (Z prime), SW (signal window), S:B (signal-to-background), S:N (signal-to-noise) were determined following. Average Z′ ≥ 0.5 and SW ≥ 2 were required to accept the screening overall, whereas single plates were rejected from analysis if Z′ < 0.3 or SW < 1.

[2] = test system: human living myocardial slices; assay: Ex vivo human living myocardial slices, qPCR gene expression; details: 48 h
Text: Myocardial slices were generated from human left ventricular heart specimens taken from failing hearts at the time of transplantation. Tissue was obtained from the Clinic for Cardiac, Thoracic, Transplant and Vascular Surgery at the Hannover Medical School (MHH), Hannover, Germany. Patients provided informed consent to the scientific use of the explanted tissue.
The preparation and culture of myocardial slices has been described before. Briefly, human heart specimens were sliced into 300 µm thick slices using a vibrating microtome (Campden Instruments, #7000smz-2) while in ice-cold 30 mM 2,3-butanedione monoxime + 1 mM D-glucose + 10 mM HEPES + 6 mM KCl + 140 mM NaCl + 1 mM MgCl2 + 1.8 mM CaCl2 (cardioplegic Tyrode’s solution), before being trimmed into approx. 7 × 7 mm pieces of aligned muscle fibres.
After 48 h in culture, myocardial slices were frozen in liquid nitrogen and stored at −80 °C for further gene expression analysis.
(§1) A mix of forward and reverse primer pairs (10 µM, Eurofins) or 10 × Quantitect Primer Assay (Qiagen, #249900) was used for mRNA. To measure miRNA, RNA was reverse-transcribed using the miRNA TaqMan MicroRNA Reverse Transcription Kit (Applied Biosystems, #4366597) with specific miRNA RT primers (ThermoFisher, #4427975). cDNA was diluted 1:3 with dH2O before qPCR with Absolute Blue qPCR Mix (Abgene, #AB-4136/B) and the specific Taqman probes (ThermoFisher, #4427975). Runs were performed in ViiA7 (Applied Biosystems) or QuantStudio 7 Flex (Applied Biosystems). Real-time qPCR data were analysed as described elsewhere.

[3] = test system: human cardiac fibroblasts (HCF); assay: TaqMan Array Human MicroRNA Cards, miRNA deregulation in HCF
Procedure: PCR amplification of array cards was performed as instructed. After quality control of all real-time qPCRs, cT values were exported and all runs were merged into a single excel file. Recommended baseline correction using relative thresholds to correct for varying reconstitution rates of different Taqman probes was not performed. Low-expressed miRNAs with cT > 32 in more than 1 replicate per treatment were excluded from analysis, before samples were normalized to column mean. Multiple unpaired t tests were performed using GraphPad Prism, deregulations were accepted as discoveries if FDR ≤ 1% (using BKY adjustment). As miRNA identifiers were based on miRbase v14, we converted them to the latest v22 for further analysis using miRBaseConverter. 747 sequences could be converted correctly, while the remaining miRNAs were removed from miRbase due to incorrect annotation (e.g. the sequences of hsa-miR-886-3p and hsa-miR-886-5p are part of VTRNA2-1 [44]) or no evidence of human expression.

[4] = test system: human cardiac fibroblasts (HCF); assay: nCounter Fibrosis Panel mRNA profiling of HCF; details: 24 h treatment
Procedure: Briefly, 100 ng/5µL isolated total RNA of HCF after 24 h treatment (RIN > 7.5 and […] > 88%) was mixed with the hybridization Master Mix and incubated at 65 °C for 20 h before loading on a nCounter® FLEX (Department of Pathology, Hannover Medical School, Germany). All run files (.RCC) were compiled into a single experiment using the nSolver analysis software. […] Reference genes for normalization were determined by nSolver using all samples (ACAD9, ARMH3, CNOT10, GUSB, MTMR14, NOL7, NUBP1, PGK1, PPIA, RPLP0, see supplemental Fig. 4e, f). We then used the Advanced analysis plugin (v2.0.115) including LOT as confounder variable and BY adjusted p value < 0.05 for identification of central deregulated pathways. Additionally, normalized counts were further analysed with GraphPad Prism using multiple unpaired t tests with FDR ≤ 5% after BKY adjustment and log2 |FC| ≥ 1.

[5] = test system: human cardiac fibroblasts (HCF); assay: In vitro migration (scratch) assay of HCF; details: 10 × EC50
Procedure: To assess migrative capabilities of HCF, cells were stained with 1:1000 1,1′-Dioctadecyl-3,3,3′,3′-Tetramethylindotricarbocyanine Iodide (DIR′) dye in FGM-3 for 20 min at 37 °C. Cells were washed with DPBS and seeded into 0.1% gelatine-coated 96-well plates at 30,000 cells per well. […] After 17 h and 24 h, plates were imaged again. Rate of migration was determined using the migrative index (MI).

[6] = test system: human cardiac fibroblasts (HCF); assay: miRNA mimic / inhibitor transfection before compound treatment, WST-1 readout
Procedure: as §1
To determine whether these miRNAs are part of and essential to the mechanism of action of the compounds, we transfected HCF with miR mimics or inhibitors of the miRNA candidates prior to compound treatment. If a miRNA is essential for the compounds’ mechanism, we would expect the absence of anti-proliferative effects after inhibition of this miRNA, whereas anti-proliferative effects would remain if the miRNA is rather a downstream element of the compound response.

[7] = test system: human cardiac fibroblasts (HCF); assay: Global RNA sequencing of treated HCF
Text: The NEBNext Ultra II Directional RNA Kit was used to prepare the samples (the same as for the nCounter® Fibrosis Panel, see above) for subsequent deep sequencing on a NovaSeq PE50 (Illumina) at HZI Braunschweig (Germany). Reads were trimmed and mapped to the human genome hg38.79 using RNA STAR (v2.4.2a, [11]) by HZI Braunschweig. RAW read counts were further analysed on Galaxy (v3.38.3, usegalaxy.org, [2]) using the limma-voom method. Low-expressed transcripts without more than 0.25 CPM (counts per million reads mapped) in at least 3 samples (42,079 of 61,043) were filtered out, and TMM (trimmed mean of M values) was the method used to normalise library sizes. Changes in transcript expression were considered significant if FDR [4] ≤ 0.05 and log2 |FC| ≥ 1.3.

[8] = mean of DMSO minus mean of treatment

SMILES: O[C@H]1[C@H]2c3cc4c(cc3CN3CCC(=C[C@@H]1O)[C@H]23)OCO4 [Lycorine, lycorine]
- EC50 [1]: 2800 nM
- FAP expression (qPCR) [2]: not
- MMP2 expression (qPCR) [2]: not
- Mean of treatment, hsa-miR-30e-3p-000422 ([3]; cT normalized to column mean): -5.454
- Mean of treatment, hsa-miR-16-000391 ([3]; cT normalized to column mean): -6.115
- Mean of treatment, hsa-miR-28-3p-002446 ([3]; cT normalized to column mean): -2.622
- Mean of treatment, hsa-miR-29a-002112 ([3]; cT normalized to column mean): -7.899
- Mean of treatment, hsa-miR-30a-3p-000416 ([3]; cT normalized to column mean): -5.962
- Mean of treatment, hsa-miR-31#-002113 ([3]; cT normalized to column mean): -6.203
- Mean of treatment, hsa-miR-31-002279 ([3]; cT normalized to column mean): -7.455
- Mean of treatment, hsa-miR-34a#-002316 ([3]; cT normalized to column mean): -2.58
- Mean of treatment, hsa-miR-125a-5p-002198 ([3]; cT normalized to column mean): -3.201
- Mean of treatment, hsa-miR-132-000457 ([3]; cT normalized to column mean): -3.872
- Mean of treatment, hsa-miR-140-3p-002234 ([3]; cT normalized to column mean): -1.119
- Mean of treatment, hsa-miR-151-3p-002254 ([3]; cT normalized to column mean): -5.192
- Mean of treatment, hsa-miR-155-002623 ([3]; cT normalized to column mean): -3.701
- Mean of treatment, hsa-miR-186-002285 ([3]; cT normalized to column mean): -4.072
- Mean of treatment, hsa-miR-191-002299 ([3]; cT normalized to column mean): -6.639
- Mean of treatment, hsa-miR-193b-002367 ([3]; cT normalized to column mean): -4.73
- Mean of treatment, hsa-miR-222#-002097 ([3]; cT normalized to column mean): -3.599
- Mean of treatment, hsa-miR-222-002276 ([3]; cT normalized to column mean): -9.167
- Mean of treatment, hsa-miR-331-000545 ([3]; cT normalized to column mean): -4.63
- Mean of treatment, hsa-miR-339-3p-002184 ([3]; cT normalized to column mean): -0.6811
- Mean of treatment, hsa-miR-342-3p-002260 ([3]; cT normalized to column mean): -3.089
- Mean of treatment, hsa-miR-376a-000565 ([3]; cT normalized to column mean): -1.759
- Mean of treatment, hsa-miR-376c-002122 ([3]; cT normalized to column mean): -3.539
- Mean of treatment, hsa-miR-409-3p-002332 ([3]; cT normalized to column mean): -4.891
- Mean of treatment, hsa-miR-625#-002432 ([3]; cT normalized to column mean): -4.373
- Mean of treatment, hsa-miR-1274B-002884 ([3]; cT normalized to column mean): -9.621
- Difference / ΔCT, hsa-miR-30e-3p-000422 [3, 8]: 0.9633
- Difference / ΔCT, hsa-miR-16-000391 [3, 8]: 0.8517
- Difference / ΔCT, hsa-miR-28-3p-002446 [3, 8]: 0.8307
- Difference / ΔCT, hsa-miR-29a-002112 [3, 8]: 0.8647
- Difference / ΔCT, hsa-miR-30a-3p-000416 [3, 8]: 0.8856
- Difference / ΔCT, hsa-miR-31#-002113 [3, 8]: 0.5519
- Difference / ΔCT, hsa-miR-31-002279 [3, 8]: 0.598
- Difference / ΔCT, hsa-miR-34a#-002316 [3, 8]: 0.8439
- Difference / ΔCT, hsa-miR-125a-5p-002198 [3, 8]: 0.6283
- Difference / ΔCT, hsa-miR-132-000457 [3, 8]: 1.328
- Difference / ΔCT, hsa-miR-140-3p-002234 [3, 8]: 0.7567
- Difference / ΔCT, hsa-miR-151-3p-002254 [3, 8]: 0.604
- Difference / ΔCT, hsa-miR-155-002623 [3, 8]: 1.386
- Difference / ΔCT, hsa-miR-186-002285 [3, 8]: 1.039
- Difference / ΔCT, hsa-miR-191-002299 [3, 8]: 0.8243
- Difference / ΔCT, hsa-miR-193b-002367 [3, 8]: 0.5576
- Difference / ΔCT, hsa-miR-222#-002097 [3, 8]: 1.599
- Difference / ΔCT, hsa-miR-222-002276 [3, 8]: 0.8654
- Difference / ΔCT, hsa-miR-331-000545 [3, 8]: 0.6606
- Difference / ΔCT, hsa-miR-339-3p-002184 [3, 8]: 0.7187
- Difference / ΔCT, hsa-miR-342-3p-002260 [3, 8]: 0.7149
- Difference / ΔCT, hsa-miR-376a-000565 [3, 8]: 1.019
- Difference / ΔCT, hsa-miR-376c-002122 [3, 8]: 0.5396
- Difference / ΔCT, hsa-miR-409-3p-002332 [3, 8]: 0.9354
- Difference / ΔCT, hsa-miR-625#-002432 [3, 8]: 0.6889
- Difference / ΔCT, hsa-miR-1274B-002884 [3, 8]: -0.4297
- deregulation of fibrosis panel genes / pathways [4]: less deregulation (fold-change) compared to the other treatments

SMILES: COC(=O)C[C@](O)(CCCC(C)(C)O)C(=O)O[C@@H]1C(OC)=C[C@]23CCCN2CCc2cc4c(cc2[C@H]13)OCO4 [lyco-s, homoharringtonine]
- inhibitory activity on HCF proliferation ([1]; BrdU incorporation): showed inhibitory activity
- EC50 fold lower than the EC50 of lycorine ([1]; HCF proliferation): over 100 fold
- EC50 [1]: 34 nM
- FAP expression (qPCR) [2]: significant down-regulation
- MMP2 expression (qPCR) [2]: significant down-regulation
- HCF migration [5]: repressed migration only after several hours
- Mean of treatment, hsa-miR-28-3p-002446 ([3]; cT normalized to column mean): -2.759
- Mean of treatment, hsa-miR-342-3p-002260 ([3]; cT normalized to column mean): -3.581
- Difference / ΔCT, hsa-miR-28-3p-002446 [3, 8]: 0.9679
- Difference / ΔCT, hsa-miR-342-3p-002260 [3, 8]: 1.208
- anti-proliferative effect after inhibition of hsa-miR-132-3p [6]: protected
- anti-proliferative effect after overexpression of hsa-miR-125a-5p [6]: partially protected against the anti-proliferative effect
- deregulation of fibrosis panel genes / pathways [4]: repressed genes related to endothelial mesenchymal transition (EMT), ECM homeostasis as well as collagen biosynthesis
- downregulation of high- to medium-expressed collagen isoforms [7]: approx. 90%
- expression of FN1, PTN and BGN [7]: significantly downregulated
- differentially expressed genes (DEGs) vs DMSO control ([7]; RNA sequencing): over 4000
- expression of collagen isoforms ([7]; top 20 expressed isoforms): approx. tenfold
